Like-named read-outs stand apart in the source and are kept apart here. One block for each compound: values may come before it.
Experiments:
[1] = biological target: T1, Human, recombinant dihydrofolate reductase (Homo sapiens, UniProt P00374); test: Human DHFR assay; assay type: biochemical
T1 construct: purchased Sigma D6566
T1 sequence (P00374 1-187): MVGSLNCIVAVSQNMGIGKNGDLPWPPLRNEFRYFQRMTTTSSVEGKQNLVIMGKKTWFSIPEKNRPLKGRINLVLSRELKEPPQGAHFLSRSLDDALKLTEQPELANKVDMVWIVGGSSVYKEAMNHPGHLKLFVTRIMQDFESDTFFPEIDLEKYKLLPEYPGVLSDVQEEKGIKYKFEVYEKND
Description: The assay is an adaptation for 96-well plate format from Appleman et al. (Appleman, J R; Howell, E E; Kraut, J; Kuhl, M and Blakley, R L (1988) J. Biol. Chem. 263, 9187-9198). Human, recombinant dihydrofolate reductase (Sigma, D6566) was incubated along with test compounds ([…]) and NADPH (Sigma, N-7505) in 96-well plates. After a 10 min. pre-incubation at room temperature, dihydrofolic acid (Sigma, D7006) was added and the kinetic traces at 340 nm measured on a Spectra Max 190 plate reader at room temperature. Reaction rates were determined from the slopes of the linear portions of the progress curves. The final assay conditions were 0.014 units DHFR, 300 μM NADPH, 30 μM Dihydrofolic acid, 50 mM TRIS, pH 7.6, 100 mM NaCl and 1.25% DMSO. Each compound was measured in duplicates on every assay plate. Each assay plate contained 12 positive controls (DMSO only) and 12 negative controls (no dihydrofolic acid). All data was percent normalized with respect to controls and presented as percent inhibition. Inhibition data was analyzed using Prism and fit to a standard 4-parameter logistic equation to calculate IC50 values.

SMN2 promoter = SMN2 promoter assay in NSC-34 cells (β-lactamase reporter); assay type: cell-based, mouse; conditions: read-out: Promoter Assay EC50
Outline: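 Compounds were tested for SMN2 promoter activation in NSC-34 cells, a mouse spinal cord–neuroblastoma hybrid line. The cells carry a plasmid in which a 3.4 kb SMN2 promoter fragment drives β-lactamase expression. CCF2-AM enters the cells and is converted by cytoplasmic esterase into an active β-lactamase substrate. Fold induction relative to vehicle (DMSO) control reflects the amount of β-lactamase made and therefore promoter activation.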

SMN2 gene = conditions: cultured cells taken from patients with SMA type I; cited from earlier work
[2] = Mus musculus, Table 1, SMN2 promoter driving β-lactamase, 12 point dose curve
[3] = Mus musculus, Table 2, SMN2 promoter driving β-lactamase
[4] = Table 3, SMN2 promoter driving β-lactamase
[5] = Mus musculus, Table 3, SMN2 promoter driving β-lactamase
[6] = Mus musculus, Table 5, SMN2 promoter driving β-lactamase

- IC50 ([1]; Table 1, read-out: hDHFR IC50): > 100 µM
- EC50 (SMN2 promoter; [2]): < 1 µM
SMILES: CCCCCCN1CCC(COc2cccc3nc(N)nc(N)c23)CC1 [Example-144]

- IC50 ([1]; Table 1, read-out: hDHFR IC50): > 100 µM
- EC50 (SMN2 promoter; [2]): < 1 µM
SMILES: Nc1nc(N)c2c(OCC3CCN(Cc4c(F)cccc4F)CC3)cccc2n1 [Example-147]

- IC50 ([1]; Table 1, read-out: hDHFR IC50): > 100 µM
- EC50 (SMN2 promoter; [2]): < 1 µM
SMILES: Nc1nc(N)c2c(OCC3CCN(CC4CCNCC4)CC3)cccc2n1 [Example-151]

- IC50 ([1]; Table 3, read-out: hDHFR IC50): > 100 µM
- EC50 (SMN2 promoter; [4]): < 1 µM
SMILES: Cc1cccc(C)c1CN1CCC(COc2cccc3nc(N)nc(N)c23)CC1 [Example-158]

- IC50 ([1]; Table 3, read-out: hDHFR IC50): > 100 µM
- EC50 (SMN2 promoter; [4]): < 1 µM
SMILES: Nc1nc(N)c2c(OCC3CCN(CC(F)F)CC3)cccc2n1 [Example-159]

- IC50 ([1]; Table 3, read-out: hDHFR IC50): > 100 µM
- EC50 (SMN2 promoter; [5]): < 1 µM
SMILES: Nc1nc(N)c2c(OCC3CCN(Cc4c(F)cccc4C(F)(F)F)CC3)cccc2n1 [Example-160, 5-[1-(2-Fluoro-6-trifluoromethylbenzyl)piperidin-4-ylmethoxy]quinazoline-2,4-diamine]

- IC50 ([1]; Table 3, read-out: hDHFR IC50): > 100 µM
- EC50 (SMN2 promoter; [5]): < 1 µM
SMILES: Nc1nc(N)c2c(OCC3CCN(Cc4c(F)cccc4Cl)CC3)cccc2n1 [Example-161, 5-[1-(2-Chloro-6-fluorobenzyl)piperidin-4-ylmethoxy]quinazoline-2,4-diamine]

- IC50 ([1]; Table 3, read-out: hDHFR IC50): > 100 µM
- EC50 (SMN2 promoter; [4]): < 1 µM
SMILES: Nc1nc(N)c2c(OCC3CCN(CC(F)(F)F)CC3)cccc2n1 [Example-165]

The next lines start with the compound.

SMILES: Nc1nc(N)c2c(OC[C@H]3CC[C@H](Cc4cccc(Cl)c4)CC3)cccc2n1 [Example-153, 5-[4-(3-Chlorobenzyl)cyclohexylmethoxy]quinazoline-2,4-diamine]
- IC50 ([1]; Table 2, read-out: hDHFR IC50): < 20 µM
- EC50 (SMN2 promoter; [3]): < 1 µM

SMILES: Nc1nc(N)c2c(OCC3CCC(Cc4ccccc4F)CC3)cccc2n1 (stereo not shown) [Example-154, 5-[4-(2-Fluorobenzyl)cyclohexylmethoxy]quinazoline-2,4-diamine]
- IC50 ([1]; Table 2, read-out: hDHFR IC50): 20 to 100 µM
- EC50 (SMN2 promoter; [3]): < 1 µM

SMILES: Nc1nc(N)c2c(OC[C@H]3CC[C@H](Cc4ccccc4Cl)CC3)cccc2n1 [Example-164, 5-[4-(2-Chlorobenzyl)cyclohexylmethoxy]quinazoline-2,4-diamine]
- IC50 ([1]; Table 2, read-out: hDHFR IC50): > 100 µM
- EC50 (SMN2 promoter; [3]): < 1 µM

SMILES: COc1ccccc1CC1CCC(COc2cccc3nc(N)nc(N)c23)CC1 (stereo not shown) [Example-168, 5-[4-(2-Methoxybenzyl)-cyclohexylmethoxy]quinazoline-2,4-diamine]
- IC50 ([1]; Table 2, read-out: hDHFR IC50): < 20 µM
- EC50 (SMN2 promoter; [3]): < 1 µM

SMILES: Nc1nc(N)c2c(OCCN3CCN(S(=O)(=O)c4ccccc4F)CC3)cccc2n1 [Example-206, 5-{2-[4-(2-Fluoro-benzenesulfonyl)-piperazin-1-yl]-ethoxy}-quinazoline-2,4-diamine]
- IC50 ([1]; Table 5, read-out: hDHFR IC50): < 20 µM
- EC50 (SMN2 promoter; [6]): < 1 µM

SMILES: Nc1nc(N)c2c(OCCN3CCN(C(=O)c4ccc(F)cc4F)CC3)cccc2n1 [Example-207, {4-[2-(2,4-Diamino-quinazolin-5-yloxy)-ethyl]-piperazin-1-yl}-(2,4-difluoro-phenyl)-methanone]
- IC50 ([1]; Table 5, read-out: hDHFR IC50): 20 to 100 µM
- EC50 (SMN2 promoter; [6]): < 1 µM

SMILES: Nc1nc(N)c2c(OCCN3CCN(C(=O)c4ccc5c(c4)OCO5)CC3)cccc2n1 [Example-208, Benzo[1,3]dioxol-5-yl-{4-[2-(2,4-diamino-quinazolin-5-yloxy)-ethyl]-piperazin-1-yl}-methanone]
- IC50 ([1]; Table 5, read-out: hDHFR IC50): < 20 µM
- EC50 (SMN2 promoter; [6]): < 1 µM

SMILES: Nc1nc(N)c2c(OCCN3CCN(S(=O)(=O)c4ccccc4)CC3)cccc2n1 [Example-209, 5-[2-(4-Benzenesulfonyl-piperazin-1-yl)-ethoxy]-quinazoline-2,4-diamine]
- IC50 ([1]; Table 5, read-out: hDHFR IC50): < 20 µM
- EC50 (SMN2 promoter; [6]): < 1 µM

SMILES: Nc1nc(N)c2c(OCCN3CCN(S(=O)(=O)c4ccc(F)cc4F)CC3)cccc2n1 [Example-210, 5-{2-[4-(2,4-Difluoro-benzenesulfonyl)-piperazin-1-yl]-ethoxy}-quinazoline-2,4-diamine]
- IC50 ([1]; Table 5, read-out: hDHFR IC50): < 20 µM
- EC50 (SMN2 promoter; [6]): < 1 µM

SMILES: Nc1nc(N)c2c(OCCN3CCN(S(=O)(=O)c4ccc(Cl)c(Cl)c4)CC3)cccc2n1 [Example-211, 5-{2-[4-(3,4-Dichloro-benzenesulfonyl)-piperazin-1-yl]-ethoxy}-quinazoline-2,4-diamine]
- IC50 ([1]; Table 5, read-out: hDHFR IC50): < 20 µM
- EC50 (SMN2 promoter; [6]): < 1 µM

SMILES: Nc1nc(N)c2c(OCCN3CCN(C(=O)c4ccc(Cl)c(Cl)c4)CC3)cccc2n1 [Example-212, {4-[2-(2,4-Diamino-quinazolin-5-yloxy)-ethyl]-piperazin-1-yl}-(3,4-dichloro-phenyl)-methanone]
- IC50 ([1]; Table 5, read-out: hDHFR IC50): < 20 µM
- EC50 (SMN2 promoter; [6]): < 1 µM

SMILES: Nc1nc(N)c2c(OCCN3CCN(C(=O)c4ccccc4)CC3)cccc2n1 [Example-213, {4-[2-(2,4-Diamino-quinazolin-5-yloxy)-ethyl]-piperazin-1-yl}-phenyl-methanone]
- IC50 ([1]; Table 5, read-out: hDHFR IC50): < 20 µM
- EC50 (SMN2 promoter; [6]): < 1 µM

SMILES: Nc1nc(N)c2c(OCCN3CCN(C(=O)c4ccc(Cl)cc4)CC3)cccc2n1 [Example-214, (4-Chloro-phenyl)-{4-[2-(2,4-diamino-quinazolin-5-yloxy)-ethyl]-piperazin-1-yl}-methanone]
- IC50 ([1]; Table 5, read-out: hDHFR IC50): < 20 µM
- EC50 (SMN2 promoter; Table 5, SMN2 promoter driving β-lactamase): < 1 µM

SMILES: Nc1nc(N)c2c(OCCN3CCN(C(=O)c4ccccc4F)CC3)cccc2n1 [Example-215, {4-[2-(2,4-Diamino-quinazolin-5-yloxy)-ethyl]-piperazin-1-yl}-(2-fluoro-phenyl)-methanone]
- IC50 ([1]; Table 5, read-out: hDHFR IC50): < 20 µM
- EC50 (SMN2 promoter; [6]): < 1 µM

SMILES: Nc1nc(N)c2c(OCCN3CCN(Cc4ccccc4F)CC3)cccc2n1 [Example-216, 5-{2-[4-(2-Fluoro-benzyl)-piperazin-1-yl]-ethoxy}-quinazoline-2,4-diamine]
- IC50 ([1]; Table 5, read-out: hDHFR IC50): 20 to 100 µM
- EC50 (SMN2 promoter; [6]): < 1 µM

SMILES: Nc1nc(N)c2c(OCCN3CCN(Cc4ccc(F)cc4F)CC3)cccc2n1 [Example-217, 5-{2-[4-(2,4-Difluoro-benzyl)-piperazin-1-yl]-ethoxy}-quinazoline-2,4-diamine]
- IC50 ([1]; Table 5, read-out: hDHFR IC50): 20 to 100 µM
- EC50 (SMN2 promoter; [6]): < 1 µM

SMILES: CCCC(CCC)C(=O)O [valproic acid]
- increase in production of functional SMN protein (SMN2 gene): 30 to 50%

— patent US7985755B2, “2,4-diaminoquinazolines for spinal muscular atrophy” (Families of Spinal Muscular Atrophy, priority 2006, dated 2011)
